These results are taken from BindingDB's records for doi:10.1074/jbc.M110.107094 (Sanford-Burnham Medical Research Institute, 2010).

Common to all, as to assay: Inhibition Assay
Settings in all cases: 37 °C

The target in assay [1] is 72 kDa type IV collagenase (Homo sapiens, UniProt P08253). An excerpt:
(§1) Inhibition of IC50 using matrix metalloproteinase.

Assay [2] concerns the target T1, Matrix metalloproteinase-14 [1-20,P8S] (Homo sapiens, UniProt P50281, P8S).
T1 construct: 1-20
Description: as §1

Assay [3] concerns the target T2, Matrix metalloproteinase-25 (Homo sapiens, UniProt Q9NPA2).
T2 sequence (Q9NPA2 whole entry): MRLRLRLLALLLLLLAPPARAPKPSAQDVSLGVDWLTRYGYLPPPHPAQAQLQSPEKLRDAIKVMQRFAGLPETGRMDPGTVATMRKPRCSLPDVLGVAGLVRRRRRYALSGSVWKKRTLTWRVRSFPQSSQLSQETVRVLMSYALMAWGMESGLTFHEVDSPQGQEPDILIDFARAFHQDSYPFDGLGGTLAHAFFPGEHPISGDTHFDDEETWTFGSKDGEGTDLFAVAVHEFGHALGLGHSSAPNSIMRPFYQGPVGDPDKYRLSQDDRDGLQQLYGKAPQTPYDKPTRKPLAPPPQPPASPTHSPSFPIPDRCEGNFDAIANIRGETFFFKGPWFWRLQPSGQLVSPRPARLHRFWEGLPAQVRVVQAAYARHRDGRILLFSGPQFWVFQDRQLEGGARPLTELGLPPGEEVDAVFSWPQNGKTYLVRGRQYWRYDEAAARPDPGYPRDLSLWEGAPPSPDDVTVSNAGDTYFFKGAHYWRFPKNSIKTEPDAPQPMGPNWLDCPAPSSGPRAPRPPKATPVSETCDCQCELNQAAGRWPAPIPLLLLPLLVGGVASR
Description: as §1

For assay [4], the target named is Matrix metalloproteinase-9 (Homo sapiens, UniProt P14780).
Description: as §1

Chain of Matrix metalloproteinase-9 (P14780 whole entry): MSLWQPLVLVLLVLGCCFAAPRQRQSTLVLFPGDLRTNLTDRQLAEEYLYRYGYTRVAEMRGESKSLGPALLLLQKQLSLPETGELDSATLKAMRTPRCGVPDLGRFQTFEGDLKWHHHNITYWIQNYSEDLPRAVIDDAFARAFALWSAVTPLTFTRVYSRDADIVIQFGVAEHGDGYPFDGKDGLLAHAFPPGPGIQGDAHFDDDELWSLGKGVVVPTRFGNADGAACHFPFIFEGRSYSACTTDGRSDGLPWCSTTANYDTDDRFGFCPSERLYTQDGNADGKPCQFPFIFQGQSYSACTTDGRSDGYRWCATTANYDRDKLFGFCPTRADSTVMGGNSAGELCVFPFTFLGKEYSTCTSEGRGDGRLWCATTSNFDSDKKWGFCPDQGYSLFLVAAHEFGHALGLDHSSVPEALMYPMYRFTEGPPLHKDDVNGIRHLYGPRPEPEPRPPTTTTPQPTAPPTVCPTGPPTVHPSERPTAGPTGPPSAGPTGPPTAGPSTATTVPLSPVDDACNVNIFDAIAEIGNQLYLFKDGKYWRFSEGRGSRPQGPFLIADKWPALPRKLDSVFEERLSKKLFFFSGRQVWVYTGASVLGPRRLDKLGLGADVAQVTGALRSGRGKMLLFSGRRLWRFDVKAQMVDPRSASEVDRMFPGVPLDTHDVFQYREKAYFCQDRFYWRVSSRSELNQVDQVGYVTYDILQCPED
Chain of 72 kDa type IV collagenase (P08253 whole entry): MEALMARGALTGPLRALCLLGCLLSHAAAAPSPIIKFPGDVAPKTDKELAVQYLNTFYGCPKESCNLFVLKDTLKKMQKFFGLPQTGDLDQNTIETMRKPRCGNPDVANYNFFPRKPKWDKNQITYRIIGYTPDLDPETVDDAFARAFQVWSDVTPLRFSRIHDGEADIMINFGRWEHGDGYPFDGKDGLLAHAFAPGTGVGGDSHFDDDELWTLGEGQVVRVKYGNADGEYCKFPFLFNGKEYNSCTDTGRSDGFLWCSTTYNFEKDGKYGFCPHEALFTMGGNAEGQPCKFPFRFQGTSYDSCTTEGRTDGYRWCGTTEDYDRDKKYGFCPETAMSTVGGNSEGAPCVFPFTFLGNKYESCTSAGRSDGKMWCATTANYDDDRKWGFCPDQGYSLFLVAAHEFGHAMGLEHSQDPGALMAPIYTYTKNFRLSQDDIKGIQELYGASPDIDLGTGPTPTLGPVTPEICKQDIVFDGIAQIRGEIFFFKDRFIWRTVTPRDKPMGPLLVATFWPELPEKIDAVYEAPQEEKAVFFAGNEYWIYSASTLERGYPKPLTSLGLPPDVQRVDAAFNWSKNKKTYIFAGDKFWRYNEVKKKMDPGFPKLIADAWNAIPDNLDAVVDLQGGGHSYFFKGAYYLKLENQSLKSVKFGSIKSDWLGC

One may read the IC50 as the concentration that gives 50% inhibition. The low end stands for greater potency, the high end for weaker potency. With `O=C(CCS(=O)(=O)c1ccccc1)NO` [BI-92G11], the IC50 in assay [1] is 1.9 µM; in assay [2], 10.9 µM; in assay [3], 0.9 µM; in assay [4], above 50 µM.
Taken in the same sequence, the figures for `CCOc1ccc(-c2ccccc2C(=O)NO)cc1` [BI-102C8] were above 100 µM, above 100 µM, 2.5 µM and above 100 µM.
